From ChEMBL document CHEMBL1139061, “Ac2-DPD, the bis-(O)-acetylated derivative of 4,5-dihydroxy-2,3-pentanedione (DPD) is a convenient stable precursor of bacterial quorum sensing autoinducer AI-2” (Bioorg Med Chem Lett, 2007) come the findings set out here.

In one test the test system is Salmonella typhimurium. Description: Induction of beta-galactosidase production in Salmonella enterica Typhimurium MET844 after 4 hrs by beta-Gal reporter gene assay. The following applies: Salmonella enterica subsp. enterica serovar Typhimurium. The format is functional, organism-based. In general terms: Reporter assays use an easily measured gene product as a stand-in for the process of interest.

The test system of another test is Bacillus cereus. The test can be described thus: Inhibition of biofilm formation in Bacillus cereus at 8 uM after 24 hrs by 96-well polyvinylchloride microtiter plate assay. The format is functional, organism-based.
The subject of another test is Vibrio harveyi. The test can be described thus: Induction of bioluminescence in Vibrio harveyi after 4 hrs by luminescence reporter assay. The note with it: read-out: IC50 (the source's name).

Molecules are shown by their SMILES. Activity calls are given as the source filed them. The rule behind the calls is not given here.

As for `CC(=O)OC[C@H](OC(C)=O)C(=O)C(C)=O`, the result in the test with Salmonella typhimurium and with Bacillus cereus was Active. In the test on Vibrio harveyi, the EC50 was determined as 2100 nM.
Consider `CC(=O)OCC(OC(C)=O)C(=O)C(C)=O` (stereo unspecified), for which the EC50 with Vibrio harveyi worked out at 2400 nM.
Consider `CC(=O)C(=O)C(O)CO` (stereo unspecified), for which, in the test with Salmonella typhimurium, the result was Active.
In the case of `CC(=O)C(=O)[C@@H](O)CO`, the result in the test on Bacillus cereus was Active.
